# Results taken from ChEMBL document CHEMBL1201862, “PubChem BioAssay data set” (2004).
#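 All cell lines were grown in 96-well plates and treated with compound for 48 hours. At the GI50, growth is halved.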 Activity calls are given as the source filed them. No stated cut-off is given here; in the data, active = GI50 up to about 1.1 µM and inactive = higher.
# Columns and labels:
# Assay in all cases: growth of human tumour cells (NCI), 48 h
# [1] = test system: SK-OV-3
# [2] = test system: EKVX
# [3] = test system: OVCAR-3
# [4] = test system: UACC-62
# [5] = test system: SN12C
# [6] = test system: HOP-62
# [7] = test system: 786-0
# [8] = test system: T47D
# [9] = test system: SK-MEL-5
# [10] = test system: SF-268
# [11] = test system: SW-620
# [12] = test system: OVCAR-8
# [13] = test system: A549
# [14] = test system: MCF7
# [15] = test system: NCI-H23
# [16] = test system: CAKI-1
# [17] = test system: M14
# [18] = test system: NCI-H226
# [19] = test system: MOLT-4
# [20] = test system: OVCAR-5
# [21] = test system: KM12
# [22] = test system: ACHN
# [23] = test system: IGROV-1
# [24] = test system: UACC-257
# [25] = test system: HCT-15
# [26] = test system: RPMI-8226
# [27] = test system: MDA-MB-435
# [28] = test system: K562
# [29] = test system: HOP-92
# [30] = test system: SK-MEL-2
# [31] = test system: HCC 2998
# [32] = test system: SF-295
# [33] = test system: U-251
# [34] = test system: SF-539
# [35] = test system: SK-MEL-28
# [36] = test system: LOX IMVI
# [37] = test system: Malme-3M
# [38] = test system: MDA-N
# [39] = test system: DU-145
# [40] = test system: COLO 205
# [41] = test system: BT-549
# [42] = test system: TK-10
# [43] = test system: PC-3
# [44] = test system: A498
# [45] = test system: HL-60
# [46] = test system: Hs-578T
# [47] = test system: HCT-116
# [48] = test system: HT-29
# [49] = test system: CCRF-CEM
# [50] = test system: SNB-19
# [51] = test system: SNB-75
# [52] = test system: OVCAR-4
# [53] = test system: NCI-H460
# [54] = test system: NCI-H522
# [55] = test system: MDA-MB-231
# [56] = test system: RXF 393
# [57] = test system: SR
structure (smiles),measurement,setting,value
O=C1OC(c2ccc([N+](=O)[O-])cc2)=N/C1=C\c1ccc(Cl)cc1,GI50,[1],> 100 µM (inactive)
same,GI50,[2],> 100 µM (inactive)
same,GI50,[3],> 100 µM (inactive)
same,GI50,[4],> 100 µM (inactive)
same,GI50,[5],> 100 µM (inactive)
same,GI50,[6],> 100 µM (inactive)
same,GI50,[7],> 100 µM (inactive)
same,GI50,[8],> 100 µM (inactive)
same,GI50,[9],> 100 µM (inactive)
same,GI50,[10],> 100 µM (inactive)
same,GI50,[11],> 100 µM (inactive)
same,GI50,[12],> 100 µM (inactive)
same,GI50,[13],> 100 µM (inactive)
same,GI50,[14],> 100 µM (inactive)
same,GI50,[15],> 100 µM (inactive)
same,GI50,[16],> 100 µM (inactive)
same,GI50,[17],> 100 µM (inactive)
same,GI50,[18],> 100 µM (inactive)
same,GI50,[19],> 100 µM (inactive)
same,GI50,[20],85.1 µM (inactive)
same,GI50,[21],> 100 µM (inactive)
same,GI50,[22],> 100 µM (inactive)
same,GI50,[23],> 100 µM (inactive)
same,GI50,[24],> 100 µM (inactive)
same,GI50,[25],> 100 µM
same,GI50,[26],> 100 µM (inactive)
same,GI50,[27],> 100 µM (inactive)
same,GI50,[28],> 100 µM (inactive)
same,GI50,[29],> 100 µM (inactive)
same,GI50,[30],> 100 µM (inactive)
same,GI50,[31],> 100 µM (inactive)
same,GI50,[32],> 100 µM (inactive)
same,GI50,[33],> 100 µM (inactive)
same,GI50,[34],> 100 µM (inactive)
same,GI50,[35],> 100 µM (inactive)
same,GI50,[36],> 100 µM (inactive)
same,GI50,[37],> 100 µM (inactive)
same,GI50,[38],> 100 µM (inactive)
same,GI50,[39],> 100 µM (inactive)
same,GI50,[40],> 100 µM (inactive)
same,GI50,[41],> 100 µM (inactive)
same,GI50,[42],> 100 µM (inactive)
same,GI50,[43],> 100 µM (inactive)
same,GI50,[44],> 100 µM (inactive)
same,GI50,[45],> 100 µM (inactive)
same,GI50,[46],> 100 µM (inactive)
same,GI50,[47],> 100 µM (inactive)
same,GI50,[48],> 100 µM (inactive)
same,GI50,[49],> 100 µM (inactive)
same,GI50,[50],> 100 µM (inactive)
same,GI50,[51],> 100 µM (inactive)
same,GI50,[52],> 100 µM (inactive)
same,GI50,[53],> 100 µM (inactive)
same,GI50,[54],> 100 µM (inactive)
same,GI50,[55],> 100 µM (inactive)
same,GI50,[56],62.8 µM (inactive)
same,GI50,[57],> 100 µM (inactive)
